These results are taken from patent US20070281865A1, “MULTI-FUNCTIONAL SPACER FOR GLYCANS” (priority 2006, published 2007).

“Also recorded” adds a separate entry of the source.

Data set [1] concerns anti-carbohydrate antibodies in sera of metastatic breast cancer patients. Put plainly: Sera of metastatic breast cancer patients on glycan array. The class given is binding, Human. The note with it: sera 1:25; 9 MBC patients, 10 healthy. The procedure: Individual (not pooled) sera were collected from 9 patients who were diagnosed with metastatic breast cancer (MBC). Blood samples were collected before treatment, so that therapeutic intervention would not interfere with patient immune responses. One patient with breast cancer but with good prognosis (IDC, Stage 1) was also included in the study. As control, or “healthy” sera, sera from ten healthy individuals, 5 female and 5 male, with no known malignancies was collected.
(§1) Sera were diluted 1:25 with PBS containing 3% BSA, and placed on the glycan array slide in humidified chamber at room temperature for 90 min. The glycan array slide was then rinsed gently with PBS/0.05% Tween, incubated with biotinylated goat antibody against human IgG, IgM and IgA, rinsed in PBS/0.05% Tween, and incubated with streptavidin-Alexa488 fluorescent dye. Following rinses in PBS/0.05% Tween and H2O, glycan array slides were dried and scanned using the commercial DNA array scanner. […] Signal to background was typically greater 50:1 and no background subtractions were performed. Data were plotted using MS Excel software.

Data set [2] concerns Human anti-HIV 2G12 monoclonal antibody. Put plainly: 2G12 binding on glycan array. Conditions: for binding of 2G12 antibody (in words): glycan array, 2G12 30 μg/mL pre-complexed with goat anti-human-IgG-FITC. From the text: Glycan array fabrication.
Glycan Binding Protein binding assay. […] Saliva samples were similarly handled.
Image acquisition and signal processing. […] Data were plotted using MS Excel software.

The target in a further data set is Concanavalin A (Con A) (Canavalia ensiformis, UniProt P02866). Conditions: printing times up to 5 hours.
Data set [3] can be described thus: pKa of deprotected spacer. The class given is physicochemical.
Data set [4] has as its system antibodies in serum of patients who received porcine fetal pancreas islet-like cell clusters. Put plainly: Sera of xenotransplant recipients on glycan array. The data set is classed as binding, Human. Conditions: before and 1, 6, 12 months after transplantation. The procedure: In 1991-1994, several diabetic (I) patients received transplantation of porcine fetal pancreas islet-like cell clusters (ICC). See, Groth, C. G. et al. Transplantation of porcine fetal pancreas to diabetic patients, The Lancet 344: 1402-4 (1994). The inventor analyzed serum from three of these patients before transplant (t=0), 1 months after (t=1), 6 months after (t=2) and 12 months after (t=3) transplant.
as §1, with “as needed” for “1:25”

As to Neu5Acα2-6GalNAcα-, the “serum antibodies against glycan in metastatic breast cancer patients versus healthy individuals (in words)” value in data set [1] is “significantly higher levels”.

`CC(=O)N[C@H]1[C@H](O[C@H]2[C@@H](O)[C@@H](CO)O[C@@H](O[C@H]3[C@H](O)[C@@H](O)C(O)O[C@@H]3CO)[C@@H]2O)O[C@H](CO)[C@@H](O)[C@@H]1O` (stereo partly drawn) [LNT-2, GlcNAc-beta3-Gal-beta4-Glc-beta]: in data set [1], the “serum antibodies against glycan in metastatic breast cancer patients versus healthy individuals (in words)” value is “bind and higher”.

“Manα1-2Manα1-2Manα1-3(Manα1-2Manα1-3(Manα1-2Manα1-6)Manα1-6)Manβ1-4GlcNAcβ1-4GlcNAcβSp [Glycan 145]”: the “binding of 2G12 antibody (in words)” value in data set [2] (listed as Man9) was “relatively weakly bound”; in data set [2] (listed as Man-9-N-glycans), “smaller level of binding”.

Consider “Manα1-2Manα1-6(Manα1-3)Manα1-6(Manα1-2Manα1-3)Manβ1-4GlcNAcβ1-4GlcNAcβSp [Glycan 144]”, for which the “binding of 2G12 antibody (in words)” value in data set [2] was “strong preference for binding”.

With “Manα1-2Manα1-3(Manα1-2Manα1-6)ManαSp [Glycan 136]”, the “variation in maximal binding of con A” value at Concanavalin A (Con A) is on record as “less than 10%”. Also, the “Rel. spec. (Relative binding activity)” value in data set [2] (binding of 2G12 to mannose containing glycans in the glycan array) is recorded as “+++ (+++ > 25,000)”. Also, in data set [2], the “binding of 2G12 antibody (in words)” value is reported as “strong binding”.

As to “Fucose-alpha2-Gal-beta3-GalNAc-beta3-Gal-alpha-4-Gal-beta4-Glc [Globo-H]”, the “serum antibodies against glycan in metastatic breast cancer patients versus healthy individuals (in words)” value in data set [1] is “bind and higher”.

Take “Manα1-3Manα1-6(Manα1-2Manα1-3)Manβ1-4GlcNAcβ1-4GlcNAcβSp [Glycan 140]”: the “binding of 2G12 antibody (in words)” value in data set [2] is recorded as “did not support binding at all”.

Molecule `C=CCCONC` [Compound 1033] displayed a pKa1 in data set [3] of 4.8.

“Manα1-6(Manα1-3)Manα1-6(Manα1-2Manα1-3)Manβ1-4GlcNAcβ1-4GlcNAcβSp [Glycan 142]”: in data set [2], the “binding of 2G12 antibody (in words)” value is reported as “did not support binding at all”.

For “Gal-beta3-GalNAc-beta4-[Neu5Ac-alpha3]-Gal-beta4-Glc-beta [GM1]”, the “serum antibodies against glycan in metastatic breast cancer patients versus healthy individuals (in words)” value in data set [1] is “bind and higher”.

For the molecule Neu5Gc(2-6)GalNAc, the “serum antibodies against glycan in metastatic breast cancer patients versus healthy individuals (in words)” value in data set [1] was “bind”.

For “Manα1-6(Manα1-2Manα1-3)Manα1-6(Manα1-2Manα1-3)Manβ1-4GlcNAcβ1-4GlcNAcβSp [Glycan 143]”, in data set [2], the “binding of 2G12 antibody (in words)” value is “did not support binding at all”.

Take Galβ1-4(Fucα1-3)GlcNAcβSp [Glycan 65]: the “serum antibodies against glycan in xenotransplant recipients (in words)” value in data set [4] is “do not have antibodies; also recorded: essentially no anti-LeX antibodies are detected”.

B1: Glycan 4: Ceruloplasmine mixture of bi and tri- and tetra-antenary N-glycans (protein, UniProt P00450 20-1065, looked up)
Ceruloplasmin: KEKHYYIGIIETTWDYASDHGEKKLISVDTEHSNIYLQNGPDRIGRLYKKALYLQYTDETFRTTIEKPVWLGFLGPIIKAETGDKVYVHLKNLASRPYTFHSHGITYYKEHEGAIYPDNTTDFQRADDKVYPGEQYTYMLLATEEQSPGEGDGNCVTRIYHSHIDAPKDIASGLIGPLIICKKDSLDKEKEKHIDREFVVMFSVVDENFSWYLEDNIKTYCSEPEKVDKDNEDFQESNRMYSVNGYTFGSLPGLSMCAEDRVKWYLFGMGNEVDVHAAFFHGQALTNKNYRIDTINLFPATLFDAYMVAQNPGEWMLSCQNLNHLKAGLQAFFQVQECNKSSSKDNIRGKHVRHYYIAAEEIIWNYAPSGIDIFTKENLTAPGSDSAVFFEQGTTRIGGSYKKLVYREYTDASFTNRKERGPEEEHLGILGPVIWAEVGDTIRVTFHNKGAYPLSIEPIGVRFNKNNEGTYYSPNYNPQSRSVPPSASHVAPTETFTYEWTVPKEVGPTNADPVCLAKMYYSAVEPTKDIFTGLIGPMKICKKGSLHANGRQKDVDKEFYLFPTVFDENESLLLEDNIRMFTTAPDQVDKEDEDFQESNKMHSMNGFMYGNQPGLTMCKGDSVVWYLFSAGNEADVHGIYFSGNTYLWRGERRDTANLFPQTSLTLHMWPDTEGTFNVECLTTDHYTGGMKQKYTVNQCRRQSEDSTFYLGERTYYIAAVEVEWDYSPQREWEKELHHLQEQNVSNAFLDKGEFYIGSKYKKVVYRQYTDSTFRVPVERKAEEEHLGILGPQLHADVGDKVKIIFKNMATRPYSIHAHGVQTESSTVTPTLPGETLTYVWKIPERSGAGTEDSACIPWAYYSTVDQVKDLYSGLIGPLIVCRRPYLKVFNPRRKLEFALLFLVFDENESWYLDDNIKTYSDHPEKVNKDDEEFIESNKMHAINGRMFGNLQGLTMHVGDEVNWYLMGMGNEIDLHTVHFHGHSFQYKHRGVYSSDVFDIFPGTYQTLEMFPRTPGIWLLHCHVTDHIHAGMETTYTVLQNEDTKSG
modifications: N-glycans
Take B1: the “serum antibodies against glycan in metastatic breast cancer patients versus healthy individuals (in words)” value in data set [1] was “bind and significantly higher levels”.
